According to PMC3745031 (Bioorganic & medicinal chemistry letters, 2012):

Experiments:
[1] = tested on: HDAC activity of HeLa cell lysates
[2] = tested on: HDAC1, HDAC3, and HDAC6; test: Isoform preference across HDAC1, HDAC3 and HDAC6; assay type: biochemical
[3] = tested on: HDAC activity of HeLa cell lysates; settings: ref 16b, cited from earlier work

SMILES: CC(C)(C)C(CCCCC(=O)NO)CC(=O)Nc1ccccc1 (stereo not shown) [2c]
- fold reduced potency compared to SAHA [1]: 20 fold
- isoform preference in single-concentration screen ([2]; 2 µM): preference for HDAC1 and HDAC6 over HDAC3

SMILES: O=C(CCCCC(CC(=O)Nc1ccccc1)c1ccccc1)NO (stereo not shown) [2b]
- isoform preference in single-concentration screen ([2]; 500 nM): similarly inhibited HDAC1, HDAC3, and HDAC6

SMILES: CCCCC(CC)CC(CCCCC(=O)NO)CC(=O)Nc1ccccc1 (stereo not shown) [2d]
- isoform preference in single-concentration screen ([2]; 500 nM): preference for HDAC3 over HDAC1 and HDAC6

SMILES: CC(CCCCC(=O)NO)CC(=O)Nc1ccccc1 (stereo not shown) [2a]
- isoform preference in single-concentration screen ([2]; 500 nM): modest dual-preference for HDAC1 and HDAC3 over HDAC6

SMILES: O=C(CC(CCCCC(=O)Nc1ccccc1)c1ccccc1)NO (stereo not shown) [C3-phenyl SAHA variant]
- IC50 ([3]; read-out: IC50, HDAC inhibition): 73 µM
- fold reduced activity versus SAHA [3]: 811 fold
